Test results published in PubChem BioAssay (NCI).
“And” between values parts separate entries of the source, which are not always exact repeats. Equal values may be shown once.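 Tested at 5 concentrations; 48 h exposure; 96-well plates; endpoints linearly interpolated, else capped at highest concentration. GI50 marks 50% less growth. TGI: total growth inhibition.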 Where a SMILES comes first, the peptide text is derived from it. The star is where a group is joined. Cbz = O=C(OCc1ccccc1)*; Boc = CC(C)(C)OC(=O)*; Bn = c1ccc(C*)cc1

Tests used:
Assay in all cases: NCI tumour cell line growth inhibition, 48 h
[1] = test system: A549 NSCLC
[2] = test system: HL-60(TB) leukemia
[3] = test system: HOP-62 NSCLC
[4] = test system: HOP-92 NSCLC
[5] = test system: MOLT-4 leukemia
[6] = test system: NCI-H460 lung
[7] = test system: RPMI-8226 leukemia
[8] = test system: SK-MEL-28 melanoma
[9] = test system: SK-OV-3 ovarian
[10] = test system: SN12C renal
[11] = test system: SNB-75 CNS
[12] = test system: SW-620 colon
[13] = test system: UO-31 renal
[14] = test system: ACHN renal
[15] = test system: NCI-H522 lung
[16] = test system: SR leukemia
[17] = test system: PC-3 prostate
[18] = test system: DU-145 prostate

SMILES | TGI [1] [µM] | TGI [2] | TGI [3] [µM] | TGI [4] | TGI [5] | GI50 [6] [µM] | TGI [6] | TGI [7] | TGI [8] | TGI [9] | TGI [10] | TGI [11] [µM] | TGI [12] | TGI [13] | TGI [14] [µM] | TGI [15] [µM] | TGI [16] [µM] | TGI [17] [µM] | TGI [18] [µM]
COc1cc(C2c3cc4c(cc3[C@@H](NCCN3CCCCC3)C3COC(=O)[C@H]23)OCO4)cc(OC)c1O (some centres not stated) | 1.3 | 0.402 µM and 0.36 µM | 0.283 | 0.84 µM and 1.64 µM | 0.0735 µM and 0.0311 µM | 0.0285 | 1.03 µM and 0.914 µM | 5.69 µM and 3.93 µM | 7.22 µM and 11.4 µM | 0.877 µM and 0.484 µM | 5.81 µM and 5.85 µM | 2.9 | 11.4 µM and 10.2 µM | 1.8 µM and 1.99 µM |  |  |  |  | 
CN(C(=O)c1ccc(Cl)cc1)C(=S)N1CCN(c2ccccn2)CC1 | > 100 | > 100 µM | > 100 | > 100 µM | > 100 µM |  | > 100 µM | > 100 µM | > 100 µM | > 100 µM | > 100 µM | > 100 | > 100 µM | > 100 µM | > 100 | > 100 | > 100 |  | 
Nc1ccc(C(=O)NN2C(=O)C(Cl)C2c2cc(Br)ccc2O)cc1 (configuration not stated) | > 100 | 78.8 µM | > 100 | > 100 µM |  |  | > 100 µM | > 100 µM | > 100 µM | > 100 µM | > 100 µM | > 100 | > 100 µM | > 100 µM | > 100 | 38.5 |  |  | 
COc1cc(Cl)cc(N(O)C(C)=O)c1OCc1ccccc1 | > 100 | > 100 µM | > 100 | > 100 µM | > 100 µM |  | > 100 µM | > 100 µM | > 100 µM | > 100 µM | > 100 µM | 76.4 | > 100 µM | > 100 µM | > 100 | > 100 | > 100 |  | 
COC(=O)C1=C(C(=O)OC)C2C(C)=CC(C)=CN2C(C#N)=C(SC)S1 (configuration not stated) | > 100 | 42.7 µM | > 100 |  | 77.3 µM |  | > 100 µM | 64.1 µM | 41.8 µM | > 100 µM | 52.6 µM | > 100 | 42.7 µM | 26.8 µM | 60.5 | 46.7 | 50.5 |  | 
COP(=O)(OC)C(=NCc1ccccc1)NNc1ccc([N+](=O)[O-])cc1 | > 100 | 46 µM | 72.1 | 54.4 µM | 74.8 µM |  | 79.3 µM | 57.1 µM | > 100 µM |  |  | 37.6 | > 100 µM |  | > 100 | 38.6 | 56.9 |  | 
COC(=O)[C@@H](O)[C@]1(C(=O)OC)C2O[C@@H](OC)[C@@H]1CCCCCC[C@H]2O | > 100 |  | > 100 |  | > 100 µM |  | > 100 µM | > 100 µM | > 100 µM | > 100 µM | > 100 µM | > 100 | > 100 µM | > 100 µM | > 100 | > 100 | > 100 | > 100 | 
COc1ccc(Cc2c(N)[nH]c(=O)n(C)c2=O)cc1 | > 100 |  | > 100 | > 100 µM |  |  | > 100 µM | > 100 µM | > 100 µM | > 100 µM | > 100 µM | > 100 | > 100 µM | > 100 µM | > 100 | > 100 |  | > 100 | 
COc1ccc(N(C)Sc2ccccc2)cc1 | > 100 | 52.3 µM | > 100 | > 100 µM | 75.6 µM |  | > 100 µM | > 100 µM | > 100 µM | > 100 µM | 75.3 µM |  | > 100 µM | > 100 µM |  | > 100 | > 100 |  | 
Cc1nc2ccc(F)cc2c2c1CCO2 | > 100 | 55.2 µM |  | > 100 µM | > 100 µM |  | > 100 µM | > 100 µM | > 100 µM |  | > 100 µM | > 100 | > 100 µM | > 100 µM | > 100 | > 100 | > 100 |  | > 100
CC(C)(C)OC(=O)NC(Cc1ccc(OCc2ccccc2)cc1)C(=O)NC(CCCCNC(=O)OCc1ccccc1)C(=O)O (configuration not stated) (Boc-Tyr(Bn)-Lys(Cbz)-OH; configuration not given here) | > 100 | 86.9 µM | > 100 | 48.5 µM | 85.1 µM |  |  | > 100 µM | 44.2 µM |  | > 100 µM | > 100 | > 100 µM | > 100 µM |  |  | 89.6 | > 100 | 
O=C1NCCCC12CCCNC2=O | > 100 | > 100 µM | > 100 |  | > 100 µM |  | > 100 µM | > 100 µM | > 100 µM | > 100 µM | > 100 µM |  | > 100 µM | > 100 µM | > 100 | > 100 | > 100 |  | 
O=c1[nH]c(=O)n(COCCO)c2ccc(Br)cc12 | > 100 | > 100 µM |  | > 100 µM | > 100 µM |  | > 100 µM |  | > 100 µM | > 100 µM | > 100 µM | > 100 | > 100 µM | > 100 µM | > 100 |  | > 100 |  | > 100
